# What was measured:
# Test in all cases: In vitro antibacterial evaluation: minimum inhibitory concentration (MIC), broth dilution method
# Format in all cases: cell-based
# Conditions in all cases: 18 hours at 35° C.
# Staphylococcus sp. = tested on: Staphylococcus sp.
# Method in brief: (§1)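 Susceptibility determined by NCCLS-recommended broth dilution (M7-A2), Muller-Hinton II […]. Concentration span 64-0.06 μg/mL, inoculum 5×10^5 CFU/mL. Isolates include strains resistant to methicillin, penicillin and/or vancomycin.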
# Enterococcus sp. = tested on: Enterococcus sp.
# Method in brief: as §1
# Escherichia coli = tested on: Escherichia coli
# Method in brief: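 Following NCCLS approved standard M7-A2, compounds are serially diluted from 64 to 0.06 μg/mL in Muller-Hinton II […] and inoculated at 5×10^5 CFU/mL; the MIC is the minimum concentration at which growth is inhibited.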
# Streptococcus sp. = tested on: Streptococcus sp.
# Method in brief: as §1
# [1] = Coagulase Negative Staphylococcus (GC 4547)
# [2] = Coagulase Negative Staphylococcus (GC 4548)
# [3] = Coagulase Negative Staphylococcus (GC 4549)
# [4] = Coagulase Negative Staphylococcus (GC 4551)
# [5] = Coagulase Negative Staphylococcus (ID-3941)
# [6] = Staphylococcus aureus (ATCC 29213)
# [7] = Staphylococcus aureus (GC 1131)
# [8] = Staphylococcus aureus (GC 4541)
# [9] = Staphylococcus aureus (GC 4542)
# [10] = Staphylococcus aureus (GC 4544)
# [11] = Staphylococcus aureus (GC 4545)
# [12] = Staphylococcus aureus-SMITH (GC 4543)
# [13] = Staphylococcus haemolyticus (GC 4546)
# [14] = broth dilution, strain ATCC 29213
# [15] = Enterococcus faecalis (ATCC 29212)
# [16] = Enterococcus faecalis (GC 2242)
# [17] = Enterococcus faecalis (GC 4552)
# [18] = Enterococcus faecalis (GC 4553)
# [19] = Enterococcus faecalis (GC 4554)
# [20] = broth dilution, strain ATCC 29212
# [21] = Streptococcus agalactiae (GC 4564)
# [22] = Streptococcus pneumoniae (GC 4565)
# [23] = Streptococcus pyogenes (ID-3187)
substance,measurement,setting,value
β-O-[(Pentylamino)carbonyl]-cyclo[glycyl-β-methylphenylalanyl-O-(4-O-hexopyranosylhexopyranosyl)tyrosyl-3-(2-iminoimidazolidin-4-yl)seryl-3-(3-hexopyranosyl-2-iminoimidazolidin-4-yl)serylseryl] [Example 251a],MIC Coagulase Negative Staphylococcus (GC 4547),Staphylococcus sp.; [1],64 µg/mL
same,MIC Coagulase Negative Staphylococcus (GC 4548),Staphylococcus sp.; [2],64 µg/mL
same,MIC Coagulase Negative Staphylococcus (GC 4549),Staphylococcus sp.; [3],32 µg/mL
same,MIC Coagulase Negative Staphylococcus (GC 4551),Staphylococcus sp.; [4],>64 µg/mL
same,MIC Coagulase Negative Staphylococcus (ID-3941),Staphylococcus sp.; [5],16 µg/mL
same,MIC Staphylococcus aureus (ATCC 29213),Staphylococcus sp.; [6],>64 µg/mL
same,MIC Staphylococcus aureus (GC 1131),Staphylococcus sp.; [7],>64 µg/mL
same,MIC Staphylococcus aureus (GC 4541),Staphylococcus sp.; [8],64 µg/mL
same,MIC Staphylococcus aureus (GC 4542),Staphylococcus sp.; [9],64 µg/mL
same,MIC Staphylococcus aureus (GC 4544),Staphylococcus sp.; [10],>64 µg/mL
same,MIC Staphylococcus aureus (GC 4545),Staphylococcus sp.; [11],64 µg/mL
same,MIC Staphylococcus aureus-SMITH (GC 4543),Staphylococcus sp.; [12],64 µg/mL
same,MIC Staphylococcus haemolyticus (GC 4546),Staphylococcus sp.; [13],64 µg/mL
same,MIC Staphylococcus aureus (ATCC 29213),Staphylococcus sp.; [14],>64 µg/mL
same,MIC Staphylococcus aureus (GC 1131),"Staphylococcus sp.; broth dilution, strain GC 1131",>64 µg/mL
same,MIC Staphylococcus aureus (GC 4541),"Staphylococcus sp.; broth dilution, strain GC 4541",64 µg/mL
same,MIC Staphylococcus aureus (GC 4542),"Staphylococcus sp.; broth dilution, strain GC 4542",64 µg/mL
same,MIC Staphylococcus aureus-SMITH (GC 4543),"Staphylococcus sp.; broth dilution, strain GC 4543",64 µg/mL
same,MIC Staphylococcus aureus (GC 4544),"Staphylococcus sp.; broth dilution, strain GC 4544",>64 µg/mL
same,MIC Staphylococcus aureus (GC 4545),"Staphylococcus sp.; broth dilution, strain GC 4545",64 µg/mL
same,MIC Staphylococcus haemolyticus (GC 4546),"Staphylococcus sp.; broth dilution, strain GC 4546",64 µg/mL
same,MIC Coagulase Negative Staphylococcus (GC 4547),"Staphylococcus sp.; broth dilution, strain GC 4547",64 µg/mL
same,MIC Coagulase Negative Staphylococcus (GC 4548),"Staphylococcus sp.; broth dilution, strain GC 4548",64 µg/mL
same,MIC Coagulase Negative Staphylococcus (GC 4549),"Staphylococcus sp.; broth dilution, strain GC 4549",32 µg/mL
same,MIC Coagulase Negative Staphylococcus (GC 4551),"Staphylococcus sp.; broth dilution, strain GC 4551",>64 µg/mL
same,MIC Coagulase Negative Staphylococcus (ID-3941),"Staphylococcus sp.; broth dilution, strain ID-3941",16 µg/mL
same,MIC Enterococcus avium (GC 4558),Enterococcus sp.; Enterococcus avium (GC 4558),>64 µg/mL
same,MIC Enterococcus faecalis (ATCC 29212),Enterococcus sp.; [15],>64 µg/mL
same,MIC Enterococcus faecalis (GC 2242),Enterococcus sp.; [16],>64 µg/mL
same,MIC Enterococcus faecalis (GC 4552),Enterococcus sp.; [17],>64 µg/mL
same,MIC Enterococcus faecalis (GC 4553),Enterococcus sp.; [18],>64 µg/mL
same,MIC Enterococcus faecalis (GC 4554),Enterococcus sp.; [19],>64 µg/mL
same,MIC Enterococcus faecium (GC 2243),Enterococcus sp.; Enterococcus faecium (GC 2243),>64 µg/mL
same,MIC Enterococcus faecium (GC 4556),Enterococcus sp.; Enterococcus faecium (GC 4556),>64 µg/mL
same,MIC Enterococcus faecium (GC 4557),Enterococcus sp.; Enterococcus faecium (GC 4557),16 µg/mL
same,MIC Enterococcus faecalis (ATCC 29212),Enterococcus sp.; [20],>64 µg/mL
same,MIC Enterococcus faecalis (GC 2242),"Enterococcus sp.; broth dilution, strain GC 2242",>64 µg/mL
same,MIC Enterococcus faecium (GC 2243),"Enterococcus sp.; broth dilution, strain GC 2243",>64 µg/mL
same,MIC Enterococcus faecalis (GC 4552),"Enterococcus sp.; broth dilution, strain GC 4552",>64 µg/mL
same,MIC Enterococcus faecalis (GC 4553),"Enterococcus sp.; broth dilution, strain GC 4553",>64 µg/mL
same,MIC Enterococcus faecalis (GC 4554),"Enterococcus sp.; broth dilution, strain GC 4554",>64 µg/mL
same,MIC Enterococcus faecium (GC 4556),"Enterococcus sp.; broth dilution, strain GC 4556",>64 µg/mL
same,MIC Enterococcus faecium (GC 4557),"Enterococcus sp.; broth dilution, strain GC 4557",16 µg/mL
same,MIC Enterococcus avium (GC 4558),"Enterococcus sp.; broth dilution, strain GC 4558",>64 µg/mL
same,MIC Escherichia coli (ATCC 25922),Escherichia coli,>64 µg/mL
same,MIC Escherichia coli (GC 4559),Escherichia coli,>64 µg/mL
same,MIC Escherichia coli (GC 4560),Escherichia coli,8 µg/mL
same,MIC Streptococcus agalactiae (GC 4564),Streptococcus sp.; [21],32 µg/mL
same,MIC Streptococcus pneumoniae (GC 4565),Streptococcus sp.; [22],8 µg/mL
same,MIC Streptococcus pyogenes (ID-3187),Streptococcus sp.; [23],16 µg/mL
same,MIC Streptococcus agalactiae (GC 4564),"Streptococcus sp.; broth dilution, strain GC 4564",32 µg/mL
same,MIC Streptococcus pneumoniae (GC 4565),"Streptococcus sp.; broth dilution, strain GC 4565",8 µg/mL
same,MIC Streptococcus pyogenes (ID-3187),"Streptococcus sp.; broth dilution, strain ID-3187",16 µg/mL
α-O-[(Dodecylanaino)carbonyl]-cyclo[glycyl-β-methylphenylalanyl-O-(4-O-hexopyranosylhexopyranosyl)tyrosyl-3-(2-iminoimidazolidin-4-yl)seryl-3-(3-hexopyranosyl-2-iminoimidazoliclin-4-yl)serylseryl] [Example 254],MIC Coagulase Negative Staphylococcus (GC 4547),Staphylococcus sp.; [1],4 µg/mL
same,MIC Coagulase Negative Staphylococcus (GC 4548),Staphylococcus sp.; [2],4 µg/mL
same,MIC Coagulase Negative Staphylococcus (GC 4549),Staphylococcus sp.; [3],2 µg/mL
same,MIC Coagulase Negative Staphylococcus (GC 4551),Staphylococcus sp.; [4],4 µg/mL
same,MIC Coagulase Negative Staphylococcus (ID-3941),Staphylococcus sp.; [5],2 µg/mL
same,MIC Staphylococcus aureus (ATCC 29213),Staphylococcus sp.; [6],4 µg/mL
same,MIC Staphylococcus aureus (GC 1131),Staphylococcus sp.; [7],4 µg/mL
same,MIC Staphylococcus aureus (GC 4541),Staphylococcus sp.; [8],4 µg/mL
same,MIC Staphylococcus aureus (GC 4542),Staphylococcus sp.; [9],4 µg/mL
same,MIC Staphylococcus aureus (GC 4544),Staphylococcus sp.; [10],4 µg/mL
same,MIC Staphylococcus aureus (GC 4545),Staphylococcus sp.; [11],8 µg/mL
same,MIC Staphylococcus aureus-SMITH (GC 4543),Staphylococcus sp.; [12],4 µg/mL
same,MIC Staphylococcus haemolyticus (GC 4546),Staphylococcus sp.; [13],4 µg/mL
same,MIC Staphylococcus aureus (ATCC 29213),Staphylococcus sp.; [14],4 µg/mL
same,MIC Staphylococcus aureus (GC 1131),"Staphylococcus sp.; broth dilution, strain GC 1131",4 µg/mL
same,MIC Staphylococcus aureus (GC 4541),"Staphylococcus sp.; broth dilution, strain GC 4541",4 µg/mL
same,MIC Staphylococcus aureus (GC 4542),"Staphylococcus sp.; broth dilution, strain GC 4542",4 µg/mL
same,MIC Staphylococcus aureus-SMITH (GC 4543),"Staphylococcus sp.; broth dilution, strain GC 4543",4 µg/mL
same,MIC Staphylococcus aureus (GC 4544),"Staphylococcus sp.; broth dilution, strain GC 4544",4 µg/mL
same,MIC Staphylococcus aureus (GC 4545),"Staphylococcus sp.; broth dilution, strain GC 4545",8 µg/mL
same,MIC Staphylococcus haemolyticus (GC 4546),"Staphylococcus sp.; broth dilution, strain GC 4546",4 µg/mL
same,MIC Coagulase Negative Staphylococcus (GC 4547),"Staphylococcus sp.; broth dilution, strain GC 4547",4 µg/mL
same,MIC Coagulase Negative Staphylococcus (GC 4548),"Staphylococcus sp.; broth dilution, strain GC 4548",4 µg/mL
same,MIC Coagulase Negative Staphylococcus (GC 4549),"Staphylococcus sp.; broth dilution, strain GC 4549",2 µg/mL
same,MIC Coagulase Negative Staphylococcus (GC 4551),"Staphylococcus sp.; broth dilution, strain GC 4551",4 µg/mL
same,MIC Coagulase Negative Staphylococcus (ID-3941),"Staphylococcus sp.; broth dilution, strain ID-3941",2 µg/mL
same,MIC Enterococcus avium (GC 4558),Enterococcus sp.; Enterococcus avium (GC 4558),4 µg/mL
same,MIC Enterococcus faecalis (ATCC 29212),Enterococcus sp.; [15],8 µg/mL
same,MIC Enterococcus faecalis (GC 2242),Enterococcus sp.; [16],8 µg/mL
same,MIC Enterococcus faecalis (GC 4552),Enterococcus sp.; [17],8 µg/mL
same,MIC Enterococcus faecalis (GC 4553),Enterococcus sp.; [18],4 µg/mL
same,MIC Enterococcus faecalis (GC 4554),Enterococcus sp.; [19],8 µg/mL
same,MIC Enterococcus faecium (GC 2243),Enterococcus sp.; Enterococcus faecium (GC 2243),4 µg/mL
same,MIC Enterococcus faecium (GC 4556),Enterococcus sp.; Enterococcus faecium (GC 4556),8 µg/mL
same,MIC Enterococcus faecium (GC 4557),Enterococcus sp.; Enterococcus faecium (GC 4557),2 µg/mL
same,MIC Enterococcus faecalis (ATCC 29212),Enterococcus sp.; [20],8 µg/mL
same,MIC Enterococcus faecalis (GC 2242),"Enterococcus sp.; broth dilution, strain GC 2242",8 µg/mL
same,MIC Enterococcus faecium (GC 2243),"Enterococcus sp.; broth dilution, strain GC 2243",4 µg/mL
same,MIC Enterococcus faecalis (GC 4552),"Enterococcus sp.; broth dilution, strain GC 4552",8 µg/mL
same,MIC Enterococcus faecalis (GC 4553),"Enterococcus sp.; broth dilution, strain GC 4553",4 µg/mL
same,MIC Enterococcus faecalis (GC 4554),"Enterococcus sp.; broth dilution, strain GC 4554",8 µg/mL
same,MIC Enterococcus faecium (GC 4556),"Enterococcus sp.; broth dilution, strain GC 4556",8 µg/mL
same,MIC Enterococcus faecium (GC 4557),"Enterococcus sp.; broth dilution, strain GC 4557",2 µg/mL
same,MIC Enterococcus avium (GC 4558),"Enterococcus sp.; broth dilution, strain GC 4558",4 µg/mL
same,MIC Escherichia coli (ATCC 25922),Escherichia coli,64 µg/mL
same,MIC Escherichia coli (GC 4559),Escherichia coli,8 µg/mL
same,MIC Escherichia coli (GC 4560),Escherichia coli,4 µg/mL
same,MIC Streptococcus agalactiae (GC 4564),Streptococcus sp.; [21],4 µg/mL
same,MIC Streptococcus pneumoniae (GC 4565),Streptococcus sp.; [22],16 µg/mL
same,MIC Streptococcus pyogenes (ID-3187),Streptococcus sp.; [23],8 µg/mL
same,MIC Streptococcus agalactiae (GC 4564),"Streptococcus sp.; broth dilution, strain GC 4564",4 µg/mL
same,MIC Streptococcus pneumoniae (GC 4565),"Streptococcus sp.; broth dilution, strain GC 4565",16 µg/mL
same,MIC Streptococcus pyogenes (ID-3187),"Streptococcus sp.; broth dilution, strain ID-3187",8 µg/mL
